Results: paper PMC6556873, “Rapid Covalent-Probe Discovery by Electrophile-Fragment Screening” (Journal of the American Chemical Society, 2019)
Like-named read-outs stand apart in the source and are kept apart here.

Assays:
[1] = target: T1, BSA (Bos taurus, UniProt P02769); design: Intact protein LC/MS covalent labelling, fragments in pools of five, 200 uM each, 4 °C; settings: 24 h, 4 °C, pool of five; 200 µM; covalent
T1 construct: gene ALB

[2] = target: T2, NUDT7 (Homo sapiens, UniProt P0C024); design: Intact protein LC/MS covalent labelling, fragments in pools of five, 200 uM each, 4 °C; settings: 24 h, 4 °C, pool of five; 200 µM; covalent
T2 construct: residues 14-235, E. coli, pNIC28-Bsa4, N-terminal His6 tag removed by TEV, construct 26672 Da

[3] = target: T3, OTUB2 (OTUB2A) (Homo sapiens, UniProt Q96DC9); design: Intact protein LC/MS covalent labelling, fragments in pools of five, 200 uM each, 4 °C; settings: 24 h, 4 °C, pool of five; 200 µM; covalent
T3 construct: full length residues 1-234, E. coli BL21(DE3)-R3, His tag removed by TEV, construct 27312 Da
T3 sequence (Q96DC9 1-234): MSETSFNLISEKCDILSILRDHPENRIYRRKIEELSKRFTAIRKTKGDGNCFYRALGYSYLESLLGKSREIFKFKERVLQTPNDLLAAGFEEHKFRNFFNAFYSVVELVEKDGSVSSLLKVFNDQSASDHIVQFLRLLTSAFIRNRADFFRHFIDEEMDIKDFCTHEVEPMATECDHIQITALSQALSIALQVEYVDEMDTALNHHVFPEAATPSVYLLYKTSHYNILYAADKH

[4] = target: T4, PCAF (Homo sapiens, UniProt Q92831); design: Intact protein LC/MS covalent labelling, fragments in pools of five, 200 uM each, 4 °C; settings: 24 h, 4 °C, pool of five; 200 µM; covalent
T4 construct: gene KAT2B

[5] = in vitro; design: species or system CCD841, HEK293; settings: human, hb2 cells, read-out: HB-2 Cells Viability (%)
[6] = in vitro; design: species or system HB2, HEK293; settings: human, ccd841 cells
[7] = in vitro; design: species or system HB2, CCD841; settings: human, hek293 cells

T4 sequence (Q92831 whole entry, the tested form may be a part): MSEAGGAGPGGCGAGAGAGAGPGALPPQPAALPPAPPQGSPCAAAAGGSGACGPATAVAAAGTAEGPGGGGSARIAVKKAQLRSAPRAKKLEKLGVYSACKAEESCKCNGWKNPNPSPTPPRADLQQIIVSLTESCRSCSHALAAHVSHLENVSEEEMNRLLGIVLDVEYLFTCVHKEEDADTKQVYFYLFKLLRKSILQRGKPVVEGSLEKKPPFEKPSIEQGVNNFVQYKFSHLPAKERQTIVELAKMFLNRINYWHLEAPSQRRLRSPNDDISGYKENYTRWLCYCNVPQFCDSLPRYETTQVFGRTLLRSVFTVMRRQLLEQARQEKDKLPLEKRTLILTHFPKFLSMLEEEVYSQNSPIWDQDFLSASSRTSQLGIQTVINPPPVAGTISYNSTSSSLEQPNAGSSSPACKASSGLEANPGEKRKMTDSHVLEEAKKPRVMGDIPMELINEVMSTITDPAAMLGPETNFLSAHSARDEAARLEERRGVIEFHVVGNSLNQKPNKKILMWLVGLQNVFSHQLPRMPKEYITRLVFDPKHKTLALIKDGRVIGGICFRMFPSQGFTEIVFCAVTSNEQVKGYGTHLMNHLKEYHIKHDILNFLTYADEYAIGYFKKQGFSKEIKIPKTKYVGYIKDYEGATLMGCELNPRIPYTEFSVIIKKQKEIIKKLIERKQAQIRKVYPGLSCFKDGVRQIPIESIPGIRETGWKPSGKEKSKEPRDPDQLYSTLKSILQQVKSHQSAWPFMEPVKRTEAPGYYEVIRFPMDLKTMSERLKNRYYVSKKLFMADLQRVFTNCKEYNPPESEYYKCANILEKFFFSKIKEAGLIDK
T1 sequence (P02769 whole entry, the tested form may be a part): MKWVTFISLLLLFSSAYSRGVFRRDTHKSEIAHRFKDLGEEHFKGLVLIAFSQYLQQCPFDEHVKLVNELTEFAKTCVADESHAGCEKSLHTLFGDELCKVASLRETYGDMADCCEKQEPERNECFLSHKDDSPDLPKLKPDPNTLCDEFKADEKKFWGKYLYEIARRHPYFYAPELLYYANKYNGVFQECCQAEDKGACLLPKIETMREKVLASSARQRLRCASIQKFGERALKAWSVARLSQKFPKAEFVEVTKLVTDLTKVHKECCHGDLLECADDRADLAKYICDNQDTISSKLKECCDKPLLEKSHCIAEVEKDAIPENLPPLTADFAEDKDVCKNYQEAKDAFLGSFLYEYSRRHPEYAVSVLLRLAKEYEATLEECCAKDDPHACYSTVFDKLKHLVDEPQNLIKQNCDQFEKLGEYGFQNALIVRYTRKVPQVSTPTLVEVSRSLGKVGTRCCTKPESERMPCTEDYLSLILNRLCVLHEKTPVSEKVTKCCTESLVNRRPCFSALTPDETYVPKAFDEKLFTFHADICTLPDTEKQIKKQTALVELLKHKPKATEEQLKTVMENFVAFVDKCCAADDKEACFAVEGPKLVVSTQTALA
T2 sequence (P0C024 14-235): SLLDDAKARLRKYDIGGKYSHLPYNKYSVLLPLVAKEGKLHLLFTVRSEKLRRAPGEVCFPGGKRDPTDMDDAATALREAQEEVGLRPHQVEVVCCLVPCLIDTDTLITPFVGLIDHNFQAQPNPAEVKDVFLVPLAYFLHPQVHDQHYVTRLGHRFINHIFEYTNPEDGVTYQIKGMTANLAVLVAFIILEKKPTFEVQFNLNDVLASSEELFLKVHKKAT

Row | Compound | BSA [1] | NUDT7 [2] | OTUB2 [3] | PCAF [4] | viability at 48 h, 10 µM [5] [%] | viability at 48 h, 10 µM [6] [%] | viability at 48 h, 10 µM [7] [%]
1 | O=C(CCl)N1CCN(C(=O)c2cccs2)CC1 [PCM-0102306] | 0 | 0 | 0 | 0 | 39.9 | 63.6 | 12.9
2 | N#CC(c1ccc(F)cc1)N1CCN(C(=O)CCl)CC1 (stereo not drawn) [PCM-0102341] | 0 | 0 | 0 | 0 | 28.6 | 60.3 | 8.6
3 | N#CC1(NC(=O)CCl)CCCCCC1 [PCM-0102465] | 0 | 0 | 0 | 0 | 80.7 | 72.3 | 43.5
4 | O=C(CCl)NC(=O)NCc1ccco1 [PCM-0102494] | 0 | 0 | 0 | 0 | 75.2 | 85.4 | 86.6
5 | CC1CCN(C(=O)CCl)CC1 [PCM-0102945] | 0 | 0 | 0 | 0 | 103 | 108 | 88.3
6 | C=CC(=O)N1CCC(n2cccn2)CC1 [PCM-0102555] | 0 | 0 | 0 | 0 | 102 | 104 | 109
7 | Cc1csc(N(C(=O)CCl)c2ccccc2)n1 [PCM-0102265] | 0 | 0.19 | 0.06 | 0 | 12.6 | 36.8 | 48.6
8 | COC(=O)c1ccc(Cl)c(NC(=O)CCl)c1 [PCM-0102764] | 0 | 0.07 | 0.29 | 0 | 16.7 | 39.9 | 5.7
9 | CC(C)(C)OC(=O)N1CCCC(CNC(=O)CCl)C1 (stereo not drawn) [PCM-0102923] | 0.13 | 0 | 0.2 | 0 | 99.5 | 91 | 92.2
10 | O=C(CCl)NCc1nc2ccccc2s1 [PCM-0102803] | 0 | 0 | 0.37 | 0 | 55.2 | 63.8 | 43
11 | O=C(CCl)Nc1ccc2c(c1)OC1(CCCCC1)O2 [PCM-0102104] | 0 | 0.08 | 0.47 | 0 | 5.9 | 62.1 | 1.4
12 | Cc1cc([N+](=O)[O-])ccc1NC(=O)CCl [PCM-0102134] | 0 | 0.1 | 0.11 | 0 | 44.3 | 60.9 | 18.1
13 | CCC1c2ccsc2CCN1C(=O)CCl (stereo not drawn) [PCM-0103051] | 0 | 0.3 | 0 | 0 | 13.5 | 14 | 6
14 | CC1CCC(NC(=O)CCl)CC1 (stereo not drawn) [PCM-0102913] | 0 | 0 | 0.08 | 0 | 96.2 | 86.2 | 72.4
15 | O=C(CCl)Nc1cc(F)cc(F)c1 [PCM-0102874] | 0 | 0.18 | 0 | 0 | 14.3 | 58.3 | 3.1
16 | O=C(CCl)N1CCN(S(=O)(=O)c2ccc3ccccc3c2)CC1 [PCM-0102836] | 0 | 0 | 0 | 0 | 11.7 | 67.7 | 46.3
17 | O=C(CCl)NC(=O)Nc1ccc2c(c1)OCO2 [PCM-0102333] | 0 | 0.29 | 0.53 | 0 | 83.2 | 98.4 | 82.6
18 | CN1CCN(C(=O)CCl)CC1 [PCM-0102921] | 0 | 0 | 0 | 0 | 102 | 109 | 90.1
19 | O=C(CCl)Nc1cc(Cl)ccc1-n1cncn1 [PCM-0102258] | 0 | 0.21 | 0 | 0 | 53.8 | 51.7 | 11.7
20 | O=C(CCl)NC(=O)c1ccccc1Cl [PCM-0102422] | 0 | 0 | 0 | 0 | 99.7 | 110 | 93
21 | CCN(C(=O)CCl)c1ccccc1C [PCM-0102980] | 0.07 | 0.43 | 0 | 0 | 93.4 | 85.7 | 66.1
22 | CC1CC(C)CN(C(=O)CCl)C1 (stereo not drawn) [PCM-0102789] | 0 | 0 | 0.08 | 0 | 102 | 83.1 | 61.8
23 | CC1CCCC(NC(=O)CCl)C1C (stereo not drawn) [PCM-0102663] | 0.21 | 0 | 0.29 | 0 | 98.5 | 104 | 87.3
24 | NC(=O)C1CCCN(C(=O)CCl)C1 (stereo not drawn) [PCM-0102495] | 0 | 0 | 0 | 0 | 92.7 | 93 | 81.7
